The target of the assay is Recombinant KAT6A/MOZ (488-778) protein (Homo sapiens (Human), UniProt Q92794). Nature of the assay: KAT6A AlphaLISA Inhibition Screening Assay. To be noted: for inhibition at 1 µM: read-out: Average Kat6A % inhibition @ 1 μM; for inhibition at 1 µM / Average Kat6A % inhibition @ 1 μM: 1 μM test compound; for inhibition at 10 µM: read-out: Average Kat6A % inhibition @ 10 μM; for inhibition at 10 µM / Average Kat6A % inhibition @ 10 μM: 10 μM test compound. The assay is classed as biochemical. The procedure, abridged:
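25 nM KAT6A (488-778) pre-incubated 60 or 10 min with compound (10-point, 3-fold from 10 μM), then 400 nM acetyl-CoA and 200 nM biotin-H3(1-21) peptide added for 120 min at RT in pH 8.0 Tris buffer with 330 nM TSA. Acetylation read by AlphaLISA (anti-acetyl-lysine acceptor/streptavidin donor beads); % inhibition vs vehicle.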
(Bead proximity is the source of the signal in Alpha formats.)

Structures are written as SMILES.

Sequence of Recombinant KAT6A/MOZ (488-778) protein (Q92794 488-778): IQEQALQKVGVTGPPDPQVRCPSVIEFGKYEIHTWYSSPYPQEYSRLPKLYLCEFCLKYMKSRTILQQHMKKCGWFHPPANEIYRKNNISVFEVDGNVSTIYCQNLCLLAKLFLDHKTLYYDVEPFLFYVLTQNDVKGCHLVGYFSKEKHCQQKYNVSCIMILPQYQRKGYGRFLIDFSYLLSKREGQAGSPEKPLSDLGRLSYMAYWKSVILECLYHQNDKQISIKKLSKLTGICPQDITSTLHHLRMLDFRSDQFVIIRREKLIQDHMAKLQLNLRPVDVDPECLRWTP

For the compound `C=C(F)C(=O)NCc1cnn(Cc2cc(OC)c3c(NS(=O)(=O)c4cc(CC)ccc4OCc4nn[nH]n4)noc3c2)c1` [Syn. Ex. 72, N-((1-((3-((2-((2H-tetrazol-5-yl)methoxy)-5-ethylphenyl)sulfonamido)-4-methoxybenzo[d]isoxazol-6-yl)methyl)-1H-pyrazol-4-yl)methyl)-2-fluoroacrylamide], the inhibition (in general, the relative decrease from the control value, in per cent) at 1 µM came to 100% and the inhibition at 10 µM stood at 100%.
For `C=C(F)C(=O)NCc1cnn(Cc2cc(OC)c3c(NS(=O)(=O)c4cc(CC)ccc4OCCO)noc3c2)c1` [Syn. Ex. 113, N-((1-((3-((5-ethyl-2-(2-hydroxyethoxy)phenyl)sulfonamido)-4-methoxybenzo[d]isoxazol-6-yl)methyl)-1H-pyrazol-4-yl)methyl)-2-fluoroacrylamide], the inhibition at 1 µM was determined as 98% and the inhibition at 10 µM was found to be 100%.
The corresponding values for `CCOC(=O)NCc1cnn(Cc2cc(OC)c3c(NS(=O)(=O)c4cc(CC)ccc4OC)noc3c2)c1` [Syn. Ex. 16, ethyl ((1-((3-((5-ethyl-2-methoxyphenyl)sulfonamido)-4-methoxybenzo[d]isoxazol-6-yl)methyl)-1H-pyrazol-4-yl)methyl)carbamate] are 98% and 98%.
As to `CCc1ccc(OC)c(S(=O)(=O)Nc2noc3cc(Cn4cc(CNC(=O)OC)cn4)cc(OC(F)F)c23)c1` [Syn. Ex. 63, methyl ((1-((4-(difluoromethoxy)-3-((5-ethyl-2-methoxyphenyl)sulfonamido)benzo[d]isoxazol-6-yl)methyl)-1H-pyrazol 4yl)methyl)carbamate], the inhibition at 1 µM was 95% and the inhibition at 10 µM worked out at 96%.
The corresponding values for `COC(=O)NCc1cnn(Cc2cc(OC)c3c(NS(=O)(=O)c4cc(C)ccc4OC)noc3c2)c1` [Syn. Ex. 88, methyl ((1-((4-methoxy-3-((2-methoxy-5-methylphenyl)sulfonamido)benzo[d]isoxazol-6-yl)methyl)-1H-pyrazol-4-yl)methyl)carbamate] are 99% and 98%.
For `COC(=O)NCc1cnn(Cc2cc3onc(NS(=O)(=O)c4ccccc4OC)c3c3c2CCCO3)c1` [Syn. Ex. 133, methyl ((1-((9-((2-methoxyphenyl)sulfonamido)-3,4-dihydro-2H-chromeno[8,7-d]isoxazol-5-yl)methyl)-1H-pyrazol-4-yl)methyl)carbamate], the inhibition at 1 µM is 100% and the inhibition at 10 µM was found to be 103%.
In the case of `CC#CC(=O)NCc1cnn(Cc2cc(OC)c3c(NS(=O)(=O)c4cc5c(cc4OC)CCC5)noc3c2)c1` [Syn. Ex. 29, N-((1-((4-methoxy-3-((6-methoxy-2,3-dihydro-1H-indene)-5-sulfonamido)benzo[d]isoxazol-6-yl)methyl)-1H-pyrazol-4-yl)methyl) but-2-ynamide], the “Average Kat6A % inhibition @ 1 μM” value worked out at 100% and the “Average Kat6A % inhibition @ 10 μM” value is 100%.
As for `C=C(F)C(=O)NCc1cnn(Cc2cc(OC)c3c(NS(=O)(=O)c4c(OC)ccnc4OC)noc3c2)c1` [Syn. Ex. 87, N-((1-((3-((2,4-dimethoxypyridine)-3-sulfonamido)-4-methoxybenzo[d]isoxazol-6-yl)methyl)-1H-pyrazol-4-yl)methyl)-2-fluoroacrylamide], the “Average Kat6A % inhibition @ 1 μM” value was determined as 95% and the “Average Kat6A % inhibition @ 10 μM” value amounted to 100%.
With `C=C(F)C(=O)NCc1cnn(Cc2cc(OC)c3c(NS(=O)(=O)c4cc(CC)ccc4OCCNC(=O)OC)noc3c2)c1` [Syn. Ex. 79, methyl (2-(4-ethyl-2-(N-(6-((4-((2-fluoroacrylamido)methyl)-1H-pyrazol-1-yl)methyl)-4-methoxybenzo[d]isoxazol-3-yl)sulfamoyl)phenoxy)ethyl)carbamate], the inhibition at 1 µM was 99% and the inhibition at 10 µM worked out at 100%.
For `CCc1ccc(OC)c(S(=O)(=O)Nc2noc3cc(Cn4cc(CNC(C)=O)cn4)cc(OC)c23)c1` [Syn. Ex. 8, N-((1-((3-((5-ethyl-2-methoxyphenyl)sulfonamido)-4-methoxybenzo[d]isoxazol-6-yl)methyl)-1H-pyrazol-4-yl)methyl) acetamide], in that order: 99% and 100%.
As for `CC#CC(=O)NCc1cnn(Cc2cc(OC)c3c(NS(=O)(=O)c4cc(OC)ccc4OC)noc3c2)c1` [Syn. Ex. 58, N-((1-((3-((2,5-dimethoxyphenyl)sulfonamido)-4-methoxybenzo[d]isoxazol-6-yl)methyl)-1H-pyrazol-4-yl)methyl)but-2-ynamide], the inhibition at 1 µM worked out at 91% and the inhibition at 10 µM stood at 97%.
For `COc1cc2c(cc1S(=O)(=O)Nc1noc3cc(Cn4cc(CNS(C)(=O)=O)cn4)cc(OC)c13)CCC2` [Syn. Ex. 24, 6-methoxy-N-(4-methoxy-6-((4-(methylsulfonamidomethyl)-1H-pyrazol-1-yl)methyl)benzo[d]isoxazol-3-yl)-2,3-dihydro-1H-indene-5-sulfonamide], in that order: 99% and 100%.
The corresponding values for `CCc1ccc(OCc2nnco2)c(S(=O)(=O)Nc2noc3cc(Cn4cc(CNC(=O)OC)cn4)cc(OC)c23)c1` [Syn. Ex. 127, methyl ((1-((3-((2-((1,3,4-oxadiazol-2-yl)methoxy)-5-ethylphenyl)sulfonamido)-4-methoxybenzo[d]isoxazol-6-yl)methyl)-1H-pyrazol-4-yl)methyl)carbamate] are 101% and 100%.
For `CCc1ccc(OC)c(S(=O)(=O)Nc2noc3cc(Cn4cc(CNC(=O)C#CCO)cn4)cc(OC)c23)c1` [Syn. Ex. 49, N-((1-((3-((5-ethyl-2-methoxyphenyl)sulfonamido)-4-methoxybenzo[d]isoxazol-6-yl)methyl)-1H-pyrazol-4-yl)methyl)-4-hydroxybut-2-ynamide], in that order: 94% and 100%.
For the compound `C#CC(=O)NCc1ccc(Oc2cc(OC)c3c(NS(=O)(=O)c4cc(CC)ccc4OC)noc3c2)nc1` [Syn. Ex. 61, N-((6-((3-((5-ethyl-2-methoxyphenyl)sulfonamido)-4-methoxybenzo[d]isoxazol-6-yl)oxy)pyridin-3-yl)methyl)propiolamide], the inhibition at 1 µM was found to be 60% and the inhibition at 10 µM came to 100%.
As to `C=C(F)C(=O)Nc1ccc(Oc2cc(OC)c3c(NS(=O)(=O)c4cc5c(cc4OC)CCC5)noc3c2)nc1` [Syn. Ex. 144, 2-fluoro-N-(6-((4-methoxy-3-((6-methoxy-2,3-dihydro-1H-indene)-5-sulfonamido)benzo[d]isoxazol-6-yl)oxy)pyridin-3-yl)acrylamide], the “Average Kat6A % inhibition @ 1 μM” value worked out at 101% and the “Average Kat6A % inhibition @ 10 μM” value is given as 99%.
Regarding `CCc1ccc(OCC(=O)O)c(S(=O)(=O)Nc2noc3cc(Cn4cc(CNC(=O)OC)cn4)cc(OC)c23)c1` [Syn. Ex. 62, 2-(4-ethyl-2-(N-(4-methoxy-6-((4-(((methoxycarbonyl)amino)methyl)-1H-pyrazol-1-yl)methyl)benzo[d]isoxazol-3-yl)sulfamoyl)phenoxy)acetic acid], the inhibition at 1 µM is 100% and the inhibition at 10 µM is 100%.
`C=C(F)C(=O)NCc1cnn(Cc2cc(OC)c3c(NS(=O)(=O)c4cc5c(cc4OC)CCC5)noc3c2)c1` [Syn. Ex. 30, 2-fluoro-N-((1-((4-methoxy-3-((6-methoxy-2,3-dihydro-1H-indene)-5-sulfonamido)benzo[d]isoxazol-6-yl)methyl)-1H-pyrazol-4-yl)methyl)acrylamide]: the “Average Kat6A % inhibition @ 1 μM” value stood at 100% and the “Average Kat6A % inhibition @ 10 μM” value worked out at 100%.
Regarding `C=C(F)C(=O)NCc1cnc(Oc2cc(OC)c3c(NS(=O)(=O)c4cc(CC)ccc4OC)noc3c2)o1` [Syn. Ex. 99, N-((2-((3-((5-ethyl-2-methoxyphenyl)sulfonamido)-4-methoxybenzo[d]isoxazol-6-yl)oxy)oxazol-5-yl)methyl)-2-fluoroacrylamide], the inhibition at 1 µM is 91% and the inhibition at 10 µM was 100%.
`COC(=O)NCc1cnn(Cc2cc(OC)c3c(NS(=O)(=O)c4c(OC)ccnc4OC)noc3c2)c1` [Syn. Ex. 86, methyl ((1-((3-((2,4-dimethoxypyridine)-3-sulfonamido)-4-methoxybenzo[d]isoxazol-6-yl)methyl)-1H-pyrazol-4-yl)methyl)carbamate]: the “Average Kat6A % inhibition @ 1 μM” value came to 86% and the “Average Kat6A % inhibition @ 10 μM” value was determined as 100%.
For the compound `COC(=O)NCc1cnn(Cc2cc(OC)c3c(NS(=O)(=O)c4cc(C)cc5cccnc45)noc3c2)c1` [Syn. Ex. 130, methyl ((1-((4-methoxy-3-((6-methylquinoline)-8-sulfonamido)benzo[d]isoxazol-6-yl)methyl)-1H-pyrazol-4-yl)methyl)carbamate], the “Average Kat6A % inhibition @ 1 μM” value was determined as 100% and the “Average Kat6A % inhibition @ 10 μM” value is reported as 102%.
On to `C=C(F)C(=O)NCc1cnn(Cc2cc(OC)c3c(NS(=O)(=O)c4cc(CC)ccc4OCc4nc[nH]n4)noc3c2)c1` [Syn. Ex. 80, N-((1-((3-((2-((1H-1,2,4-triazol-3-yl)methoxy)-5-ethylphenyl)sulfonamido)-4-methoxybenzo[d]isoxazol-6-yl)methyl)-1H-pyrazol-4-yl)methyl)-2-fluoroacrylamide], for which the inhibition at 1 µM amounted to 100% and the inhibition at 10 µM stood at 100%.
For the compound `COc1cc(C)c(Cl)cc1S(=O)(=O)Nc1noc2cc(Cn3cc(CNS(C)(=O)=O)cn3)cc(OC)c12` [Syn. Ex. 22, 5-chloro-2-methoxy-N-(4-methoxy-6-((4-(methylsulfonamidomethyl)-1H-pyrazol-1-yl)methyl)benzo[d]isoxazol-3-yl)-4-methylbenzenesulfonamide], the inhibition at 1 µM is 100% and the inhibition at 10 µM is 100%.

Values taken from patent US20250122182A1 (Isosterix, Inc., priority 2023, published 2025).
